pIC50: −log10 of the molar value. Values joined by “and” are separate entries in the source; they are usually repeats but may differ in a detail not shown here. Equal entries are not always repeated. Structures can show the parent of a compound that is named as a salt.
Columns and labels:
[1] = tested on: Staphylococcus aureus MW2 (mecA+); test: IC50 (growth, competition assay); conditions: cefoxitin: subinhibitory
Method in brief: (§1)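 Two fluorescent S. aureus MW2 strains, one carrying and one lacking the resistance gene, were pre-induced, mixed 1:1 and grown unshaken in LB in 1536-well plates for 20 h at 37 °C and 90% humidity with a subinhibitory drug dose set each day. Compounds were tested on five- or nine-point 2-fold gradients in two dye-swapped replicates. DsRed (540/590) and GFP (485/520) signals were scaled per plate between the medians of single-strain controls, and No Treatment was then set to 0.5. For each strain, IC50 was taken as the dose that halved the No Treatment signal, or else the maximal signal.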

[2] = tested on: Staphylococcus aureus MW2 delta-mecA (mecA-); test: IC50 (growth, competition assay); conditions: cefoxitin: subinhibitory
Method in brief: as §1

Row | SMILES | pIC50 ([1]; fluorescent label: DsRed) | pIC50 ([1]; fluorescent label: GFP) | pIC50 ([2]; fluorescent label: DsRed) | pIC50 ([2]; fluorescent label: GFP)
1 | Cc1onc(-c2c(Cl)cccc2Cl)c1C(=O)N[C@@H]1C(=O)N2[C@@H]1SC(C)(C)[C@@H]2C(=O)O [DYNAPEN] | > 5.01 | > 5.01 | > 5.01 | > 5.01
2 | CC1=C(O)C(=O)C=C2C1=CC=C1[C@@]2(C)CC[C@@]2(C)[C@@H]3C[C@](C)(C(=O)O)CC[C@]3(C)CC[C@]12C [CELASTROL] | > 5.01 | > 5.01 | > 5.01 | > 5.01
3 | N#C[C@H](O[C@@H]1O[C@H](CO[C@@H]2O[C@H](CO)[C@@H](O)[C@H](O)[C@H]2O)[C@@H](O)[C@H](O)[C@H]1O)c1ccccc1 [Amygdalin] | 4.62 | 4.54 | > 5.01 | > 5.01
4 | C=C[C@](C)(O)CC[C@@H]1[C@@]2(C)CCCC(C)(C)[C@@H]2CC[C@@]1(C)O [SCLAREOL] | 4.50 | 4.54 | > 5.01 | > 5.01
5 | O=C(O)c1ccc2cc(-c3ccc(O)c(C45CC6CC(CC(C6)C4)C5)c3)ccc2c1 [CD 437] | > 5.01 | > 5.01 | > 5.01 | > 5.01
6 | CCCCCCCCNC(C)C(O)c1ccc(SC(C)C)cc1 (stereo not given) [SULOCTIDIL] | 4.53 | 4.56 | 4.76 | 4.61
7 | CC/C(=C(\c1ccccc1)c1ccc(OCCN(C)C)cc1)c1ccccc1 [Tamoxifen citrate] | 4.83 | 4.83 | > 5.01 | > 5.01
8 | CC1=CC(=O)c2c(O)cccc2C1=O [PLUMBAGIN] | 4.74 | 4.42 | > 5.01 | > 5.01
9 | CC(=O)NC1CCSC1=O (stereo not given) [CITIOLASE] | 4.25 | 4.99 | 4.91 | 4.41
10 | Cc1ccc(S(=O)(=O)N[C@@H](Cc2ccccc2)C(=O)CCl)cc1 [N-p-Tosyl-L-phenylalanine chloromethyl ketone] | > 5.01 | > 5.01 | > 5.01 | > 5.01
11 | CO/N=C(\C(=O)N[C@@H]1C(=O)N2C(C(=O)O)=C(COC(C)=O)CS[C@H]12)c1csc(N)n1 [CLAFORAN] | 4.81 | 4.82 | > 5.01 | > 5.01
12 | O=C(c1ccc(Nc2nccc(-c3cc4ccccc4s3)n2)cc1)N1CCC(N2CCCC2)CC1 [IKK-16] | 4.31 | 4.25 | 4.74 | 4.75
13 | CCCCCCCCCCCCCCCC(=O)OC(CC(=O)O)C[N+](C)(C)C (racemic) [Palmitoyl-DL-Carnitine chloride] | 4.92 | 4.85 | > 5.01 | > 5.01
14 | COC(=O)c1c(OC)cc2c(c1C)Oc1c(Cl)c(O)c(Cl)c(C)c1C(=O)O2 [GANGALEOIDIN] | > 5.01 | 4.20 | 4.42 | > 5.01
15 | C=CC(C1=CC(=O)C(OC)=CC1=O)c1ccccc1 (stereo not given) [4-METHOXYDALBERGIONE] | 4.23 | 4.20 | > 5.01 | 4.88
16 | CC1COc2c(N3CCN(C)CC3)c(F)cc3c(=O)c(C(=O)O)cn1c23 (stereo not given) [Ofloxacin] | > 5.01 | > 5.01 | > 5.01 | > 5.01
17 | NC1CCN(c2c(F)cc3c(=O)c(C(=O)O)cn(C4CC4)c3c2Cl)C1 (stereo not given) [CLINAFOXACIN HYDROCHLORIDE] | > 5.01 | > 5.01 | > 5.01 | > 5.01
18 | NCCOB(c1ccccc1)c1ccccc1 [AMINOETHOXYDIPHENYLBORANE] | 4.59 | 4.60 | 4.95 | 4.93
19 | NCc1ccccc1CC(=O)N[C@@H]1C(=O)N2C(C(=O)O)=C(CSc3nnnn3CC(=O)O)CS[C@H]12 [PRECEF] | 4.27 | 4.35 | > 5.01 | > 5.01
20 | CC[C@H]1OC(=O)C[C@@H](O)[C@H](C)[C@@H](O[C@@H]2O[C@H](C)[C@@H](O[C@H]3C[C@@](C)(O)[C@@H](O)[C@H](C)O3)[C@H](N(C)C)[C@H]2O)[C@@H](CC=O)C[C@@H](C)C(=O)/C=C/C(C)=C/[C@@H]1CO[C@@H]1O[C@H](C)[C@@H](O)[C@@H](OC)[C@H]1OC [TYLAN] | > 5.01 | > 5.01 | > 5.01 | > 5.01

Row | SMILES | pIC50 ([1]; fluorescent label: DsRed) | pIC50 ([1]; fluorescent label: GFP) | pIC50 ([2]; fluorescent label: DsRed) | pIC50 ([2]; fluorescent label: GFP)
21 | CO[C@H]1/C=C/O[C@@]2(C)Oc3c(C)c(O)c4c(c3C2=O)C2=NC3(CCN(CC(C)C)CC3)NC2=C(NC(=O)/C(C)=C\C=C\[C@H](C)[C@H](O)[C@@H](C)[C@@H](O)[C@@H](C)[C@H](OC(C)=O)[C@@H]1C)C4=O [Rifabutin] | > 6.30 | > 6.30 | > 6.30 | > 6.30
22 | Oc1c(I)cc(Cl)c2cccnc12 [VIOFORM] | 4.82 | 4.83 | > 5.01 | > 5.01
23 | CCN(CC)C(=S)SSC(=S)N(CC)CC [ANTABUSE] | 4.50 | 4.48 | 4.91 | 4.95
24 | c1ccc2c(Cc3c[nH]c4ccccc34)c[nH]c2c1 [3,3'-DIINDOLYLMETHANE] | 4.17 | 3.98 | 4.66 | 4.67
25 | CCCCCC(=O)Cc1cc(O)cc(O)c1C(=O)Oc1cc(CC(=O)CCCCC)c(C(=O)O)c(OC)c1 [ARTHONIOIC ACID] | 4.62 | 4.25 | 4.34 | 4.30
26 | C=C[C@]1(C)C[C@@H](OC(=O)CS[C@@H]2C[C@H]3CC[C@@H](C2)N3C)[C@]2(C)[C@H](C)CC[C@]3(CCC(=O)[C@H]32)[C@@H](C)[C@@H]1O [Retapamulin] | > 5.01 | > 5.01 | > 5.01 | > 5.01
27 | N[C@@H]1CONC1=O [SEROMYCIN] | < 3.82 | 3.96 | 4.01 | 4.04
28 | CC(C)c1cccc(C(C)C)c1N1C(=O)c2ccc(O)cc2C1=O [5HPP-33] | 4.59 | 3.95 | 4.39 | > 5.01
29 | CO[C@@]1(NC(=O)C2SC(=C(C(N)=O)C(=O)O)S2)C(=O)N2C(C(=O)O)=C(CSc3nnnn3C)CS[C@@H]21 (stereo not given in full) [CEFOTAN] | 4.83 | 4.83 | > 5.01 | > 5.01
30 | COc1ccc(NS(=O)(=O)c2sc3ccc(Cl)cc3c2C)cc1N1CCNCC1 | 3.99 | 3.97 | 4.64 | 4.78
31 | C=CC1=C(C(=O)O)N2C(=O)[C@@H](NC(=O)/C(=N\O)c3csc(N)n3)[C@H]2SC1 [Cefdinir (Omnicef)] | 5.38 | 5.44 | > 6.30 | > 6.30
32 | CCn1cc(C(=O)O)c(=O)c2cc(F)c(N3CCNCC3)cc21 [Norfloxacin (Norxacin)] | 6.09 | 6.11 | > 6.30 | > 6.30
33 | C[C@@H](O)[C@H]1C(=O)N2C(C(=O)[O-])=C(SC3Cn4cnc[n+]4C3)[C@H](C)[C@H]12 (stereo not given in full) [Biapenem] | 3.98 | 3.95 | 4.50 | 4.61
34 | O=C(C=Cc1ccc(O)cc1)c1ccccc1O [2',4-DIHYDROXYCHALCONE] | 4.39 | 4.24 | 4.57 | 4.62
35 | CCOC(=O)C1=C(C)NC(C)=C(C(=O)OC)C1c1cccc(Cl)c1Cl (stereo not given) [Felodipine (Plendil)] | 4.65 | 4.50 | 5.15 | 5.16
36 | Cn1sc(=O)n(Cc2ccccc2)c1=O [TDZD-8] | > 5.01 | > 5.01 | > 5.01 | > 5.01
37 | Cc1cncc(CN2CCC(=C3c4ccc(Cl)cc4CCc4cccnc43)CC2)c1 [Rupatadine Fumarate] | 4.13 | 3.95 | 4.57 | 4.69
38 | CNc1ccc2oc(C[C@H]3O[C@@]4(CC[C@H]3C)O[C@H]([C@H](C)C(=O)c3ccc[nH]3)[C@H](C)C[C@H]4C)nc2c1C(=O)O [Calcimycin] | > 5.01 | > 5.01 | > 5.01 | > 5.01
39 | CNCc1ccc(C)c(NC(=O)c2ccc(Nc3nc(-c4ccccc4)c4ccccc4n3)cc2)c1 | 4.80 | 4.84 | > 5.01 | > 5.01
40 | O=c1c(O)c(-c2ccc(O)c(O)c2)oc2cc(O)cc(O)c12 [Quercetin dihydrate (Sophoretin)] | 4.23 | 4.27 | 4.73 | 4.95

Row | SMILES | pIC50 ([1]; fluorescent label: DsRed) | pIC50 ([1]; fluorescent label: GFP) | pIC50 ([2]; fluorescent label: DsRed) | pIC50 ([2]; fluorescent label: GFP)
41 | CCN(CC)C(=S)SSC(=S)N(CC)CC [Tetraethylthiuram disulfide] | 4.48 | 4.44 | > 5.01 | > 5.01
42 | CC(=O)OCC1=C(C(=O)O)N2C(=O)[C@@H](NC(=O)CSc3ccncc3)[C@H]2SC1 [CEFADYL] | > 5.01 | > 5.01 | > 5.01 | > 5.01
43 | CC[C@H]1OC(=O)[C@H](C)[C@@H](O[C@H]2C[C@@](C)(OC)[C@@H](O)[C@H](C)O2)[C@H](C)[C@@H](O[C@@H]2O[C@H](C)C[C@H](N(C)C)[C@H]2O)[C@](C)(OC)C[C@@H](C)C(=O)[C@H](C)[C@@H](O)[C@]1(C)O [BIAXIN] | > 5.01 | > 5.01 | > 5.01 | > 5.01
44 | O=[N+]([O-])c1ccc(O)c2ncccc12 [ENTEROCOL] | 4.79 | 4.26 | 4.42 | > 5.01
45 | Cc1ccc(S(=O)(=O)C=CC#N)cc1 [Bay 11-7082] | > 5.01 | > 5.01 | > 5.01 | > 5.01
46 | O=c1[nH]c(=O)n([C@H]2C[C@H](O)[C@@H](CO)O2)cc1C(F)(F)F [VIROPTIC] | 4.23 | 3.97 | > 5.01 | > 5.01
47 | CC(C)c1c(C(=O)Nc2ccccc2)c(-c2ccccc2)c(-c2ccc(F)cc2)n1CC[C@@H](O)C[C@@H](O)CC(=O)O [Atorvastatin calcium (Lipitor)] | 4.04 and 4.12 | 4.14 and 4.20 | 4.54 and 4.61 | 4.52 and 4.59
48 | CN1CCN(CCCN2c3ccccc3Sc3ccc(Cl)cc32)CC1 [COMPAZINE] | 3.86 | 4.25 | 4.47 | 4.25
49 | CN(N=O)C(=O)N[C@@H]1[C@@H](O)[C@H](O)[C@@H](CO)O[C@@H]1O [ZANOSAR] | > 5.01 | > 5.01 | > 5.01 | > 5.01
50 | Cc1cc2nc3c(=O)[nH]c(=O)nc-3n(C[C@H](O)[C@H](O)[C@H](O)CO)c2cc1C [FLAVAXIN] | < 3.82 | < 3.82 | < 3.82 | < 3.82
51 | NC[C@@H]1O[C@H](C23CC4CC(CC(C4)C2)C3)Cc2c1ccc(O)c2O | 4.46 | 4.25 | 4.46 | 4.26
52 | Cc1cc(NC2CCCCC2)nc(-n2nc(C)cc2C)n1 [CyPPA] | 4.40 | 3.97 | 4.73 | 4.77
53 | CC1CC(OC(=O)C(O)c2ccccc2)CC(C)(C)C1 (stereo not given) [CYCLOSPASMOL] | 4.35 | 4.08 | 4.82 | 4.86
54 | CCOc1nc2cccc(C(=O)OCc3oc(=O)oc3C)c2n1Cc1ccc(-c2ccccc2-c2noc(=O)[nH]2)cc1 [EDARBI] | 4.73 | 4.23 | 4.89 | > 5.01
55 | Cc1cc(C2CCCCC2)n(O)c(=O)c1 [Ciclopirox (Penlac)] | 4.72 | 4.52 | 4.53 | 4.53
56 | COc1cc(Nc2ncc3c(n2)-c2ccc(Cl)cc2C(c2c(F)cccc2OC)=NC3)ccc1C(=O)O [MLN8237 (Alisertib)] | 4.91 | 4.56 | > 5.01 | > 5.01
57 | CCn1cc(C(=O)O)c(=O)c2cc(F)c(N3CCNC(C)C3)c(F)c21 (stereo not given) [Lomefloxacin hydrochloride (Maxaquin)] | 5.75 | 5.75 | 6.25 | > 6.30
58 | CC(=O)/C=C1/C(=O)N(C)c2ccccc21 [Supercinnamaldehyde] | 4.33 | 4.22 | > 5.01 | > 5.01
59 | O=C(O)c1cn(C2CC2)c2cc(N3CCNCC3)c(F)cc2c1=O [Ciprofloxacin (Cipro)] | 5.45 | 5.45 | 6.06 | 5.93
60 | O=C(/C=C/c1ccc(O)c(O)c1)OCCc1ccccc1 [Caffeic acid phenethyl ester] | 4.24 | 4.05 | 4.64 | 4.71

— the supplement of paper PMC7695840
